One block for each molecule: values may come before it.
What was measured:
[1] = system: microfluidic devices seeded with rat liver cells; assay: Albumin secretion / hepatocyte function, microfluidic devices seeded with rat liver cells; assay type: cell-based; details: rat quadruple-cell chips, 1, 10, 30 μM
Excerpt: Prior to cell seeding, microfluidic devices, in this case S-1 Chips (Emulate, Inc. Boston, Mass., USA), were functionalized using Emulate's proprietary protocols and reagents (ERT™), including those described herein. After surface functionalization, both channels of the microfluidic device were coated with species-specific extracellular matrices (ECM). For the human bound microfluidic device, a mixture of collagen type I (Corning, Corning, N.Y., USA) and fibronectin, e.g. bovine, (Gibco) was used; for the rat bound microfluidic devices a mixture of collagen type IV, e.g. human placenta, (Sigma-Aldrich, St. Louis, Mo., USA) and fibronectin (Gibco) was used; for the dog bound microfluidic devices a mixture of collagen I (Corning), collagen type IV (Sigma-Aldrich), and fibronectin (Gibco) was used. […] For the dual-cell culture model (hepatocytes and endothelial cells), the LSECs were seeded at a concentration of 2-4 million cells/mL in the lower vascular channel. […] Albumin secretion from the upper channel was quantified using ELISA kits for human, rat, and dog models effluent samples (human and rat: Abcam; dog: Immunology Consultants Laboratory, Inc., Portland, Oreg., USA) and the assays were performed according to the protocol provided by each vendor.

[2] = system: microfluidic devices seeded with human liver cells; assay: Lipid accumulation (Nile red / AdipoRed) in human chips; assay type: cell-based
Excerpt: (§1) Microfluidic devices seeded with liver cells were stained in the upper channel with 5(6)-Carboxy-2′,7′-dichlorofluorescein diacetate (CDFDA) (ThermoFisher) to visualize bile canaliculi and MRP2 activity, cholyl-lysyl-fluorescein (CLF) (Corning) to visualize bile canaliculi and BSEP activity, Nile red (ThermoFisher) or AdipoRed (Lonza) to visualize lipid droplet accumulation, Tetramethylrhodamine, methyl ester (TMRM) (ThermoFisher) to visualize active mitochondria, and CellROX® (ThermoFisher) to visualize cellular oxidative stress. Each staining solution was prepared in blank medium or compound dosing medium and added to the upper channel, incubated for 15 minutes at 37° C., and washed three times with medium. The stained microfluidic devices were imaged using a specific filter, and were de-blurred with Olympus cellSens software. Using ImageJ-Fiji, the fluorescent channel images were histogram adjusted to remove background, followed by fluorescence quantification using the Integrated Density calculation function.
(§2) The stained microfluidic devices were imaged using the TRITC filter, and were de-blurred with Olympus cellSens software. Using ImageJ-Fiji, the fluorescent channel images were histogram adjusted to remove background, followed by fluorescence quantification using the Integrated Density calculation function. N=5 FOVs per microfluidic device were analyzed for conditions: vehicle (0.1% DMSO), FIAU dosing groups, and MTX dosing groups.

[3] = system: microfluidic devices seeded with human liver cells; assay: Albumin secretion, microfluidic devices seeded with human liver cells; assay type: cell-based
Excerpt: Prior to cell seeding, microfluidic devices, in this case S-1 Chips (Emulate, Inc. Boston, Mass., USA), were functionalized using Emulate's proprietary protocols and reagents (ERT™), including those described herein. After surface functionalization, both channels of the microfluidic device were coated with species-specific extracellular matrices (ECM). For the human bound microfluidic device, a mixture of collagen type I (Corning, Corning, N.Y., USA) and fibronectin, e.g. bovine, (Gibco) was used; for the rat bound microfluidic devices a mixture of collagen type IV, e.g. human placenta, (Sigma-Aldrich, St. Louis, Mo., USA) and fibronectin (Gibco) was used; for the dog bound microfluidic devices a mixture of collagen I (Corning), collagen type IV (Sigma-Aldrich), and fibronectin (Gibco) was used. […] For the dual-cell culture model (hepatocytes and endothelial cells), the LSECs were seeded at a concentration of 2-4 million cells/mL in the lower vascular channel. […] After cell seeding, the upper channel of the microfluidic device was maintained in William's E Medium (WEM) containing Glutamax (Gibco), ITS+(Corning), dexamethasone (Sigma-Aldrich), ascorbic acid (Sigma-Aldrich), fetal bovine serum (FBS) (Sigma-Aldrich), and Penicillin/Streptomycin (Sigma-Aldrich). The vascular channel of the microfluidic device was maintained with species-specific endothelial media (Emulate, Inc.). Two days after seeding, the microfluidic devices were connected to the Human Emulation System™ (Emulate, Inc.), as described in part herein, and both of the microfluidic device channels were perfused at 30 μL/hr to provide a continuous supply of fresh media for the duration of the experiments. Albumin secretion from the upper channel was quantified using ELISA kits for human, rat, and dog models effluent samples (human and rat: Abcam; dog: Immunology Consultants Laboratory, Inc., Portland, Oreg., USA) and the assays were performed according to the protocol provided by each vendor.

[4] = cited from earlier work
[5] = system: microfluidic devices seeded with human liver cells; assay: DILI biomarker release (alpha-GST, miR-122, keratin 18) from human chips; assay type: cell-based
Excerpt: Exemplary Biomarker, e.g. DILI: Keratin 18 levels were quantified in human model effluent samples from both the hepatocyte and vascular channels using the M65 EpiDeath CK18 ELISA Kit (DiaPharma, Detroit, Mich., USA). The assay was run following the vendor protocol using a standard curve ranging from 0-5,000 U/L. Additionally, a standard curve ranging from 0-500 U/L was generated independently for quality control.
Exemplary Biomarker, e.g. DILI: Alpha Glutathione S-Transferase (α-GST) levels were quantified in human model effluent samples from the upper channel using an ELISA kit (DiaPharma). The assay was run following the vendor protocol using a standard curve ranging from 0-64 μg/L. Additionally, a standard curve ranging from 0-50 μg/L was generated independently for quality control.
Exemplary Biomarker, e.g. DILI: Mir-122: Isolation of micro-RNAs was performed on upper and lower chamber eluates using Qiagen's (Hilden, Germany) miRNA isolation kit for serum and plasma. A total volume of 50 μL was used for isolation. Isolation was performed according to manufacturer's protocol using a 56.5 pM oligonucleotide spike-in control. Samples were eluted with 14 μL RNase-free water. Reverse transcription was performed using Thermo Fisher Scientific's TaqMan™ MicroRNA Reverse Transcription Kit according to the manufacturer's protocol. A total reaction volume of 15 μL was used. Real-time PCR was performed using Thermo Fisher Scientific's TaqMan™ Micro-RNA Assays according to manufacturer's protocol. A total reaction volume of 10 μl was used. Normalized rrCt was used for fold-change analysis.

[6] = system: microfluidic devices seeded with human liver cells; assay: Cytokine release (IL-6, MCP-1, IP-10) from the vascular channel of human chips; assay type: cell-based; details: for release of cytokines/chemokines including IP-10: treated chips; for IL-6 release / MCP-1 release: 14 days
Method: Cytokines: Release of IL-6, MCP-1, and IP-10 from the vascular channel was quantified using U-PLEX biomarker human assays (Meso Scale Diagnostics, Rockville, Md., USA) and the assays were performed according to the protocol provided by the vendor.

[7] = system: microfluidic devices seeded with rat liver cells; assay: Lipid accumulation (Nile red) in rat chips; assay type: cell-based; details: rat chips, 1, 10, 30 μM, 10 days
Excerpt: as §1, with “The stained microfluidic devices were imaged using a specific filter, and were de-blurred with Olympus cellSens software.” left out
as §2

stellate cells = assay: Stellate cell activation (alpha-SMA) in human chips; assay type: cell-based
Method: Microfluidic devices seeded with liver cells and static sandwich plate cultures were fixed with 4% paraformaldehyde for 15 minutes at room temperature, washed with PBS, and permeabilized (saponin 1% with 10% serum in PBS). Blocking and incubation with the primary antibodies (overnight in PBS containing 1% BSA or PBS containing 10% serum and 1% BSA) was followed by a two-hour incubation with secondary antibodies (Cell Signaling, Danvers, Mass., USA) in the same blocking buffer. Immunostaining was performed with specific primary antibodies (anti-MRP2, anti-stabilin-1, anti-BSEP, anti-α-SMA, anti-CD68; Abcam, Cambridge, Mass., USA) and images were acquired with either an Olympus fluorescence microscope (IX83) or Zeiss confocal microscope (AxiovertZ1 LSM880).
The number of CD68- or α-SMA-positive cells in the vascular channel in each group was counted in each field of view ([…]) and quantified.
The fluorescent channel (588) was first background subtracted and processed using the median filter of Image J. After processing, the signal was thresholded using adaptive thresholding function of Image J (Otsu method) to extract fluorescent regions and to measure the relative intensity of the fluorescent signal. N=4 to 6 FOVs per microfluidic device from each microfluidic device were analyzed. […]

[8] = system: hepatocytes in microfluidic devices seeded with human liver cells; assay: Hepatocyte morphology (bright-field) in human chips; assay type: cell-based; details: quadruple-cell human chips, daily administration 7 days
[9] = system: microfluidic devices seeded with human liver cells; assay: Mitochondrial membrane potential (TMRM) in human chips; assay type: cell-based; details: TAK-875 3, 10, 30 μM, 8 or 15 days
Excerpt: as §1

MRP2 = target: T1, MRP2 (Homo sapiens, UniProt Q92887); assay: Biliary efflux of MRP2 substrate CDFDA in human chips; assay type: cell-based; details: TAK-875 3, 10, 30 μM, up to 15 days
T1 construct: Primary rat, dog or human hepatocytes were cultured in the upper parenchymal channel; endogenous in cells; host or cells: primary human hepatocytes in a microfluidic Liver-Chip

[10] = system: microfluidic devices seeded with human liver cells; assay: ROS levels (CellROX) in human chips; assay type: cell-based; details: TAK-875, up to 15 days

T1 sequence (Q92887 whole entry): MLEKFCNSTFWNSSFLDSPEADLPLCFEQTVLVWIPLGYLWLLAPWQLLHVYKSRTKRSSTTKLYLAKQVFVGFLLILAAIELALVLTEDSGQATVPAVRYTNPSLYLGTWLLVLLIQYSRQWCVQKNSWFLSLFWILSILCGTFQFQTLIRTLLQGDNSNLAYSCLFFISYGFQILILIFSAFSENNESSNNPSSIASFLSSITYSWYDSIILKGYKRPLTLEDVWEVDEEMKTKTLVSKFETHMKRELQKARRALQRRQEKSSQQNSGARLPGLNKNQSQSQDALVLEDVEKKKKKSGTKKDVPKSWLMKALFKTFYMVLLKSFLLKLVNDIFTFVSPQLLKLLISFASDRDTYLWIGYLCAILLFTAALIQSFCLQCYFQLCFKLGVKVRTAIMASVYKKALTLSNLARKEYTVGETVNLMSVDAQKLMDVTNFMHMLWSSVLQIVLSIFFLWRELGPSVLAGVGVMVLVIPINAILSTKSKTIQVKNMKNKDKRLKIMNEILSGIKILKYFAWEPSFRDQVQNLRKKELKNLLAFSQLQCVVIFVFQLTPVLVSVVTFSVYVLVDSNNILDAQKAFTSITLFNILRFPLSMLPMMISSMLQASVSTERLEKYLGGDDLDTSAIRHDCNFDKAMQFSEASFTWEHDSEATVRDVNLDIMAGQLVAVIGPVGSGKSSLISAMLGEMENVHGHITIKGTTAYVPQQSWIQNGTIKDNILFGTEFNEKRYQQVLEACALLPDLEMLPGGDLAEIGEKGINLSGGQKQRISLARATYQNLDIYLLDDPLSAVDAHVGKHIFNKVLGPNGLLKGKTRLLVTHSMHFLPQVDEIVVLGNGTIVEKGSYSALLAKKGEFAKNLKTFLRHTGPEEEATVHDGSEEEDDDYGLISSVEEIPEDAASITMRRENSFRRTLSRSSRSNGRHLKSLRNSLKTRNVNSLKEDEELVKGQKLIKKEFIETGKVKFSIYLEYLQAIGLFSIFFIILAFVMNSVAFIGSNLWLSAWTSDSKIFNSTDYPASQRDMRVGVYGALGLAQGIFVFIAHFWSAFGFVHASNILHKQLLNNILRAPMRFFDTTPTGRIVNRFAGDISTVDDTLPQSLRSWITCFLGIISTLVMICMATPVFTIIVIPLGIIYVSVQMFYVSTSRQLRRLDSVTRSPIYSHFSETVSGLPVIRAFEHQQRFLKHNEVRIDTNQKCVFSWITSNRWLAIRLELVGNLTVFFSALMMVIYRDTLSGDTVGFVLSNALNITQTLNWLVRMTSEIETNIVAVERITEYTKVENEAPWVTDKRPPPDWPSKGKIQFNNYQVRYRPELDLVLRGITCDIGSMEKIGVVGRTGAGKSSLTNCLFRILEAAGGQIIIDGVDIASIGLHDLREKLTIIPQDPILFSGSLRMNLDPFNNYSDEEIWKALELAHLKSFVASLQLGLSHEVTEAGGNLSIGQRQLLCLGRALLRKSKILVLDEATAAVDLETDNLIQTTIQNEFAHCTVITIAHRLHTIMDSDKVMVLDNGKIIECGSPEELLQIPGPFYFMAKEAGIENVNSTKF

SMILES: O=c1[nH]c(=O)n([C@@H]2O[C@H](CO)[C@@H](O)[C@@H]2F)cc1I [FIAU, fialuridine]
hepatocyte function [1]: no effects
lipid accumulation (Nile red) ([2]; daily 1, 10, 30 μM for 10 days, human chips): dose-dependent increase
concentrations with dose-dependent decline in albumin secretion ([3]; quadruple-cell human chips, daily FIAU 1, 10, 30 μM): ≥ 1000 nM
patients with liver failure and death ([4]; Phase II clinical trials): 5/15
keratin 18 (K-18) (liver injury marker) ([5]; FIAU 1, 10, 30 μM, 10 days): release
miR122 (liver injury marker) ([5]; FIAU 1, 10, 30 μM, 10 days): release
α-GST (liver injury marker) ([5]; FIAU 1, 10, 30 μM, 10 days): release
release of cytokines/chemokines including IP-10 [6]: observed
lipid accumulation [7]: no effects

stellate cell activation, expression of α-SMA (stellate cells; daily 1, 10, 30 μM for 7 days): increased expression
hepatocyte morphology [8]: no abnormalities
albumin synthesis / secretion ([3]; quadruple-cell human chips, 7 days): no abnormalities
IP-10 ([6]; MTX 1, 10, 30 μM, vascular channel, 1 day (FIG. 8C)): increases
release of cytokines/chemokines including IP-10 [6]: observed
SMILES: CN(Cc1cnc2nc(N)nc(N)c2n1)c1ccc(C(=O)N[C@@H](CCC(=O)O)C(=O)O)cc1 [MTX, Methotrexate]
lipid accumulation (Nile red) ([2]; daily 1, 10, 30 μM for 7 days): microscopic evidence of lipid accumulation
maximal plasma concentration at which liver injury occurs in humans ([4]; some patient populations): ~1 µM

biliary efflux of the MRP2 substrate CDFDA (MRP2): dose-dependent decrease
% aSMA positive area from the vascular channel (stellate cells; 10 or 30 uM for 15 days, human Liver-Chips): Not significant
lipid droplet accumulation (AdipoRed) ([2]; end of the 2-week treatment): detected
albumin production ([3]; 30 μM, 14 days, human chips): decreased
IL-6 release ([6]; 10 μM): significant release
MCP-1 release ([6]; 10 μM): significant release
IL-6 release ([6]; 30 μM (highest dose)): not observed
MCP-1 release ([6]; 30 μM (highest dose)): not observed
formation of ROS [10]: increase
SMILES: Cc1cc(OCCCS(C)(=O)=O)cc(C)c1-c1cccc(COc2ccc3c(c2)OC[C@H]3CC(=O)O)c1 [TAK-875]
mitochondrial membrane potential, TMRM distribution [9]: dose-related and time-dependent redistribution
incidence of treatment-related elevations in transaminases (>3-fold rise in upper limit of normal) ([4]; Phase III trials): 2.7%
release of K18 ([5]; 30 μM, 14 days): increased release
markers of hepatocyte function or necrosis (albumin and K18) ([5]; accompanying mitochondrial perturbations, human chips): minimal changes

From patent publication US20210340572A1, “HIGH-CONTENT IMAGING OF MICROFLUIDIC DEVICES” (EMULATE, Inc., priority 2019, published 2021)
